{"source": "patent US6465494B1", "about": "“Methods for treatment of cystic fibrosis” (Cell Pathways, Inc., priority 2001, dated 2002)", "key": {"[1]": {"target": "T1, GST-cGB-PDE5 fusion protein (Homo sapiens, UniProt O76074)", "T1 construct": "made in house; host or cells: E. coli BL21 (DE3)", "assay": "cGMP binding assay with GST-cGB-PDE5 fusion protein", "settings": "for competition with cGMP binding to GST-cGB-PDE5 at high concentration: compound at high concentration, cGMP 2 μM", "source_text": "RT-PCR method is used to obtain the cGB domain of PDE5 with forward and reverse primers designed from bovine PDE5A cDNA sequence (McAllister-Lucas L. M et al, J. Biol. Chem. 268, 22863-22873, 1993) and the selection among PDE 1-10 families. 5′-3′, Inc. kits for total RNA followed by oligo (dT) column purification of mRNA are used with HT-29 cells. […] It is then cloned into pGEX-5X-3 glutathione-S-transferase (GST) fusion vector (Pharmacia Biotech )with tac promoter, and EcoRI and XhoI cut sites. The fusion vector is then transfected into E. Coli BL21 (DE3) bacteria (Invitrogen). The transfected BL21 bacteria is grown to log phase, and then IPTG is added as an inducer. The induction is carried at 20° C. for 24 hrs. The bacteria are harvested and lysed. The soluble cell lysate is incubated with GSH conjugated Sepharose 4B (GSH-Sepharose 4B). The GST-cGB-PDE5 fusion protein can bind to the GSH-Sepharose beads, and the other proteins are washed off from beads with excessive cold PBS.\nThen, the mixture is transferred to Brandel MB-24 cell harvester with GF/B as the filter membrane followed by 2 washes with 10 mL of cold 5 mM potassium buffer(pH 6.8). The membranes are then cut out and transferred to scintillation vials followed by the addition of 1 mL of H2O and 6 mL of Ready Safe™ liquid scintillation cocktail to each vial. The vials are counted on a Beckman LS 6500 scintillation counter.\nThe quenching by filter membrane or other debris are also calibrated."}, "PDE5": {"target": "PDE5 (Homo sapiens, UniProt O76074)", "assay": "cGMP PDE inhibition, 3H-cGMP hydrolysis: PDE5", "format": "biochemical", "design": "partially purified cGMP-specific PDE isolated from HT-29 cells; endogenous in cells; host or cells: HT-29", "protocol": "(Thompson, W. J., Teraski, W. L., Epstein, P. M., Strada, S. J., Advances in Cyclic Nucleotide Research, 10:69-92, 1979, which is incorporated herein by reference). […] The mixture is incubated at 30° C. for 10 minutes with isolated PDE2 and/or PDE5. Reactions are terminated, for example, by boiling the reaction mixture for 75 seconds. After cooling on ice, 100 μl of 0.5 mg/mL snake venom (O. Hannah venom available from Sigma) is added and incubated for 10 minutes at 30° C. This reaction is then terminated by the addition of an alcohol, e.g. 1 mL of 100% methanol. Assay samples are applied to 1 mL Dowex 1-X8 column; and washed with 1 mL of 100% methanol. The amount of radioactivity in the breakthrough and the wash from the column is combined and measured with a scintillation counter. The degree of phosphodiesterase inhibition is determined by calculating the amount of radioactivity in drug-treated reactions and comparing against a control sample (a reaction mixture lacking the tested compound but with drug solvent).\nCompounds of this invention are also PDE2 and PDE5 inhibitors as taught in part U.S. patent application Ser. No. 09/046,739 filed Mar. 24, 1998. […] The amount of radioactivity in the breakthrough and the wash from the columns in then measured with a scintillation counter. […]"}, "native bovine PDE5": {"target": "native bovine PDE5 (Bos taurus, UniProt Q28156)", "settings": "read-out: Kd of cGMP binding, native bovine PDE5; cited from earlier work"}, "U937 cells": {"system": "U937 cells", "assay": "apoptosis induction of U937 cells (active caspase 3 immunofluorescence)", "format": "cell-based", "settings": "24 hours", "protocol": "The U937 monocyte cell line was derived from a histocytic lymphoma and can be driven to differentiate into an ‘activated macrophage like’ state by treatment with 5nM phorbal ester (TPA). Treated U937 cells become adherent, increase their cytoplasmic volume and express macrophage-specific cell surface markers. The presence and level of PDE2 and 5 mRNA in both differentiated and non-differentiated U937 cells was confirmed by performing RT-PCR experiments on total RNA.\nU937 cells (from ATCC Rockville, Md.) were grown in RPMI media supplemented with 5% FCS, glutamine, antibiotic/antimycotic and sodium pyruvate. Total RNA was isolated from two U937 cultures, one treated with 5nM TPA for 48 hours and one grown in normal media as listed above, using the Rouche High Pure RNA Isolation Kit (cat# 1 828 665) as per manufacturers protocol. cDNA was then synthesized from the total RNA using GibcoBRL Superscriptll (Cat # 18064-022) reverse transcriptase as per manufacturers protocol. The resulting cDNA was used as a template for RT-PCR reactions using primer sets specific for PDE2 (forward: […], reverse: […]) or PDE5 (forward: […], reverse: […]). mRNA for PDE2 and 5 were both present in the untreated U937 cells. Upon treatment with TPA, the relative amounts of PDE2 mRNA increased 5 fold. Therefore, U937 cells treated with TPA and driven to differentiate into an activated macrophage like state have elevated levels of PDE2 mRNA (see FIG. 1).\nThe presence of PDE2 and PDE5 protein within U937 cells was confirmed by indirect immunofluorescence (IIF). U937 cells were cultured as above. Two U937 cultures, one grown in the presence of 5 nM TPA for 48 hours and one grown in normal media were processed. All cultures were collected by centrifugation (Shandon Cytospin, 2 minutes @ 600 rpm) onto poly-L lysine-coated slides and immediately fixed in fresh 3% paraformaldehyde buffered in PBS for 10 minutes. Adherent cultures were grown on coverslips and fixed as above. […]\nThe level of apoptosis in U937 cells was quantified by scoring 500 consecutive cells for the presence of active caspase 3. […]"}}, "note": "Where two headings read alike, the source gives them in different places.", "data": [{"compound": "CCCCOC1C2OP(=O)(O)OCC2OC1n1cnc2c(N)ncnc21", "note": "(stereo not shown) [2′-O-butyl-cAMP]", "values": [{"measurement": "competition with cGMP in binding to the cGMP binding sites of GST-cGB-PDE5", "setting": "[1]; 3H-cGMP 2 μM, 22° C., 1 hour", "result": "did not compete"}]}, {"compound": "CCCCOC1C2OP(=O)(O)OCC2OC1n1cnc2c(=O)[nH]c(N)nc21", "note": "(stereo not shown) [2′-O-butyl-cGMP]", "values": [{"measurement": "competition with cGMP in binding to the cGMP binding sites of GST-cGB-PDE5", "setting": "[1]; 3H-cGMP 2 μM, 22° C., 1 hour", "result": "did not compete"}]}, {"compound": "Nc1ncnc2c1ncn2[C@@H]1O[C@@H]2COP(=O)(O)O[C@H]2[C@H]1O", "note": "[Cyclic AMP]", "values": [{"measurement": "competition with cGMP in binding to the cGMP binding sites of GST-cGB-PDE5", "setting": "[1]", "result": "did not compete"}]}, {"compound": "O=c1[nH]cnc2c1ncn2[C@@H]1O[C@@H]2COP(=O)(O)O[C@H]2[C@H]1O", "note": "[Cyclic IMP, cyclic IMP]", "values": [{"measurement": "competition with cGMP binding to GST-cGB-PDE5 at high concentration", "setting": "[1]", "result": "can partially compete"}]}, {"compound": "CC1=C(CC(=O)NCc2ccccc2)c2cc(F)ccc2/C1=C\\c1ccncc1", "note": "[Example 1, (Z)-5-Fluoro-2-Methyl-(4-Pyridinylidene)-3-(N-Benzyl)-Indenylacetamide]", "values": [{"measurement": "IC50", "setting": "PDE5", "result": 680, "unit": "nM"}]}, {"compound": "Nc1nc2c(nc(Br)n2[C@@H]2O[C@@H]3COP(=O)(O)O[C@H]3[C@H]2O)c(=O)[nH]1", "note": "[Example 8-bromo-cGMP, 8-bromo-cGMP]", "values": [{"measurement": "competition with cGMP binding to GST-cGB-PDE5 at high concentration", "setting": "[1]", "result": "can partially compete"}]}, {"compound": "O=C([O-])C1CCN(c2nc(NCc3ccc4c(c3)OCO4)c3cc(Cl)ccc3n2)CC1.[Na+]", "note": "[Example E4021]", "values": [{"measurement": "competition with cGMP in binding to the cGMP binding sites of GST-cGB-PDE5", "setting": "[1]; 3H-cGMP 2 μM, 22° C., 1 hour", "result": "None of the PDE5 inhibitors showed any competition with cGMP"}]}, {"compound": "CSc1ccc(/C=C2/C(C)=C(CC(=O)O)c3cc(F)ccc32)cc1", "note": "[Sulindac sulfide, sulindac sulfide]", "values": [{"measurement": "competition with cGMP in binding to the cGMP binding sites of GST-cGB-PDE5", "setting": "[1]; 3H-cGMP 2 μM, 22° C., 1 hour", "result": "None of the PDE5 inhibitors showed any competition with cGMP"}]}, {"compound": "Nc1ccn([C@@H]2O[C@@H]3COP(=O)(O)O[C@H]3[C@H]2O)c(=O)n1", "note": "[cCMP, cyclic CMP]", "values": [{"measurement": "competition with cGMP in binding to the cGMP binding sites of GST-cGB-PDE5", "setting": "[1]; 3H-cGMP 2 μM, 22° C., 1 hour", "result": "did not compete"}]}, {"compound": "Nc1nc2c(ncn2[C@@H]2O[C@@H]3COP(=O)(O)O[C@H]3[C@H]2O)c(=O)[nH]1", "note": "[cGMP, cyclic 3′,5′-guanosine monophosphate]", "values": [{"measurement": "Kd", "setting": "[1]; read-out: Kd of cGMP binding to GST-cGB-PDE5 fusion protein, two cGMP binding sites", "result": "1600 ± 200", "unit": "nM"}, {"measurement": "Kd", "setting": "native bovine PDE5", "result": 1300, "unit": "nM"}]}, {"compound": "O=c1ccn([C@@H]2O[C@@H]3COP(=O)(O)O[C@H]3[C@H]2O)c(=O)[nH]1", "note": "[cUMP, cyclic UMP]", "values": [{"measurement": "competition with cGMP in binding to the cGMP binding sites of GST-cGB-PDE5", "setting": "[1]; 3H-cGMP 2 μM, 22° C., 1 hour", "result": "did not compete"}]}, {"compound": "CC1=C(CC(=O)O)c2cc(F)ccc2/C1=C\\c1ccc(S(C)(=O)=O)cc1", "note": "[exisulind]", "values": [{"measurement": "competition with cGMP in binding to the cGMP binding sites of GST-cGB-PDE5", "setting": "[1]; 3H-cGMP 2 μM, 22° C., 1 hour", "result": "None of the PDE5 inhibitors showed any competition with cGMP"}]}, {"compound": "COc1ccc(C2CNC(=O)C2)cc1OC1CCCC1", "note": "(stereo not shown) [rolipram, reference compound]", "values": [{"measurement": "levels of apoptosis (active caspase 3)", "setting": "U937 cells; 0.5uM", "result": "No increase in the levels of apoptosis compared to normal background"}]}, {"compound": "CCCc1nn(C)c2c(=O)[nH]c(-c3cc(S(=O)(=O)N4CCN(C)CC4)ccc3OCC)nc12", "note": "[sildenafil, reference compound]", "values": [{"measurement": "levels of apoptosis (active caspase 3)", "setting": "U937 cells; 0.3nM", "result": "No increase in the levels of apoptosis compared to normal background"}]}, {"compound": "CCCOc1ccccc1-c1nc2nn[nH]c2c(=O)[nH]1", "note": "[zaprinast]", "values": [{"measurement": "competition with cGMP in binding to the cGMP binding sites of GST-cGB-PDE5", "setting": "[1]; 3H-cGMP 2 μM, 22° C., 1 hour", "result": "None of the PDE5 inhibitors showed any competition with cGMP"}]}]}
